# Experimental data published in patent US6946475B1, “Anticancer calcium channel blockers” (University of Virginia Patent Foundation, priority 1999, dated 2005).
# Read-outs that look alike come from different tables or passages of the source.
# Columns and labels:
# [1] = system: LNCaP prostate cancer cells; assay: Measurement of cellular proliferation, LNCaP cells; as to Effect on proliferation of LNCaP cells: test concentration or dose not given here; format: cell-based, human; conditions: for Effect on proliferation of LNCaP cells: FIGS. 10-39
# Protocol: (§1) Measurement of cellular proliferation: LNCaP cells at 2.5×10^4/well or PC3 cells at 5×10^4/well, both in a final volume of 100 μl, were plated in triplicate in standard flat bottom 96 well tissue culture plates in the presence of drug or vehicle (DMSO). Unless otherwise indicated, cells were grown for 48 hours at 37° C. in a CO2 incubator. Relative cell growth was determined with the CellTiter 96 aqueous cell proliferation assay (Promega, Madison, Wis.) as described by the manufacturer using an automated plate reader. Results were calculated in a blinded fashion and are means of triplicate determinations.
# (§2) For the 48 hour proliferation, cells were cultured with calcium channel antagonists or without calcium channel antagonists. The IC50 values of the calcium channel antagonists were determined.
# (§3) Using the measurement cell proliferation assay described hereinabove, the cell lines Jurkat, LNCap (prostate cancer cell), PC-31 (prostate cancer cell), DU145 (prostate cancer cell), MDA-468 (breast cancer cell), MDA-36 (Breast cancer cell), MCF-7 (breast cancer cell), MIA PaCa-2 (pancreatic cancer cell), Hep G2 (liver cancer cell), A549 (non-small cell lung cancer cells), NCI H460 (non-small cell lung cancer cells), HT-29 (colon cancer cell), HCT-116 (colon cancer cell) and SK OV-3 (ovarian cancer cell) were cultured in the presence of TH-1177, TH-1205, TH-1201, TH-2109, TH-2029, TH-2043, TN-2085 and TH-2279.
# [2] = system: PC3 prostate cancer cells; assay: Measurement of cellular proliferation, PC3 cells; format: cell-based, human; conditions: for Effect on proliferation of PC3 cells: 48 hours, FIGS. 10-39; for IC50: PC-3, 48 hours, read-out: PROLIFERATION IC50 PC-3
# Protocol: as §1, §2, §3
# [3] = system: MDA-361 cells (breast cancer cell); assay: Measurement of cellular proliferation, MDA-361 cells; format: cell-based; conditions: for Effect on proliferation of MDA-361 cells: 48 hours, FIGS. 10-39
# Protocol: as §1, §2, §3
# Jurkat cells = assay: Measurement of cellular proliferation, Jurkat cells; format: cell-based; conditions: for Effect on proliferation of Jurkat cells: FIGS. 10-39
# Protocol: as §1, §2, §3
# [4] = system: MDA-468 (breast cancer cell); assay: Measurement of cellular proliferation, MDA-468 cells; as to Effect on proliferation of MDA-468 cells: test concentration or dose not given here; format: cell-based; conditions: for Effect on proliferation of MDA-468 cells: 48 hours, FIGS. 10-39; for IC50: MDA-468, 48 hours
# Protocol: as §1, §2, §3
# [5] = system: SK OV-3 (ovarian cancer cell); assay: Measurement of cellular proliferation, SK OV-3 cells; format: cell-based; conditions: SK-OV-3, 48 hours
# Protocol: as §1, §2, §3
# [6] = system: HT-29 (colon cancer cell); assay: Measurement of cellular proliferation, HT-29 cells; format: cell-based; conditions: HT-29, 48 hours
# Protocol: as §1, §2, §3
# [7] = system: MIA PaCa-2 (pancreatic cancer cell); assay: Measurement of cellular proliferation, MIA PaCa-2 cells; format: cell-based; conditions: MIA PaCa-2, 48 hours
# Protocol: as §1, §2, §3
# [8] = system: Hep G2 (liver cancer cell); assay: Measurement of cellular proliferation, Hep G2 cells; format: cell-based; conditions: Hep G2, 48 hours
# Protocol: as §1, §2, §3
# [9] = system: DU145 (prostate cancer cell); assay: Measurement of cellular proliferation, DU145 cells; format: cell-based; conditions: DU 145, 48 hours
# Protocol: as §1, §2, §3
# [10] = system: HCT-116 (colon cancer cell); assay: Measurement of cellular proliferation, HCT-116 cells; format: cell-based; conditions: HCT 116, 48 hours
# Protocol: as §1, §2, §3
# [11] = system: A549 (non-small cell lung cancer cells); assay: Measurement of cellular proliferation, A549 cells; format: cell-based; conditions: A549, 48 hours
# Protocol: as §1, §2, §3
# [12] = system: NCI H460 (non-small cell lung cancer cells); assay: Measurement of cellular proliferation, NCI H460 cells; format: cell-based; conditions: NCI H460, 48 hours; read-out: PROLIFERATION IC50 NCl H460
# Protocol: as §1, §2, §3
# [13] = system: MCF-7 (breast cancer cell); assay: Measurement of cellular proliferation, MCF-7 cells; format: cell-based; conditions: MCF-7, 48 hours
# Protocol: as §1, §2, §3
# [14] = LNCaP, 48 hours, read-out: PROLIFERATION IC50 LNCaP
# [15] = MDA-361, 48 hours, read-out: PROLIFERATION IC50 MDA-361
# [16] = Jurkat, 48 hours, read-out: PROLIFERATION IC50 Jurkat
# [17] = Example 7, LNCaP, read-out: cell proliferation test of Example 6 repeated, LNCaP
# [18] = Example 7, MDA-361, read-out: cell proliferation test of Example 6 repeated, MDA-361
# [19] = Example 7, Jurkat, read-out: cell proliferation test of Example 6 repeated, Jurkat
compound,measurement,setting,value
c1ccc(C(CN2CCCCC2)c2ccccc2)cc1 [MMR-64],Effect on proliferation of LNCaP cells,[1]; 48 hours,inhibition
same,Effect on proliferation of PC3 cells,[2],inhibition
same,Effect on proliferation of MDA-361 cells,[3],inhibition
same,Effect on proliferation of Jurkat cells,Jurkat cells; 48 hours,inhibition
same,Effect on proliferation of MDA-468 cells,[4],inhibition
COc1ccc(CCN2CCC[C@H]2COC(c2ccc(Cl)cc2)c2ccc(Cl)cc2)cc1 [TH-2019],IC50,[1]; [14],4 µM
same,IC50,[5],30 µM
same,IC50,[6],~100 µM
same,IC50,[7],17 µM
same,IC50,[2],19 µM
same,IC50,[3]; [15],23 µM
same,IC50,[8],30 µM
same,IC50,[9],28 µM
same,IC50,[10],31 µM
same,IC50,Jurkat cells; [16],7 µM
same,IC50,[11],72 µM
same,IC50,[12],12 µM
same,IC50,[4],21 µM
same,IC50,[13],30 µM
COc1ccc(CCN2CCCC2COC(c2ccccc2)c2ccccc2)cc1 (stereo not drawn) [TH-1113],Effect on proliferation of LNCaP cells,[1]; 48 hours,concentration dependent inhibition
same,Effect on proliferation of PC3 cells,[2],concentration dependent inhibition
same,Effect on proliferation of MDA-361 cells,[3],concentration dependent inhibition
same,Effect on proliferation of Jurkat cells,Jurkat cells; 48 hours,concentration dependent inhibition
same,Effect on proliferation of MDA-468 cells,[4],concentration dependent inhibition
COc1ccc(CCN2CCCC2COC(c2ccccc2)c2ccc(Cl)cc2)cc1 (stereo not drawn) [TH-1211],Effect on proliferation of LNCaP cells,[1]; 48 hours,concentration dependent inhibition
same,IC50,[1]; [14],3 µM
same,IC50,[5],23 µM
same,IC50,[6],~90 µM
same,IC50,[7],17 µM
same,Effect on proliferation of PC3 cells,[2],concentration dependent inhibition
same,IC50,[2],17 µM
same,Effect on proliferation of MDA-361 cells,[3],concentration dependent inhibition
same,IC50,[3]; [15],14 µM
same,IC50,[8],20 µM
same,IC50,[9],13 µM
same,IC50,[10],32 µM
same,Effect on proliferation of Jurkat cells,Jurkat cells; 48 hours,concentration dependent inhibition
same,IC50,Jurkat cells; [16],4 µM
same,IC50,[11],41 µM
same,IC50,[12],13 µM
same,Effect on proliferation of MDA-468 cells,[4],concentration dependent inhibition
same,IC50,[4],11 µM
same,IC50,[13],24 µM
COc1ccccc1CCN1CCC[C@H]1COC(c1ccccc1)c1ccc(Cl)cc1 (stereo partly drawn) [TH-3104],IC50,[1]; [17],2.4 µM
same,IC50,[3]; [18],13 µM
same,IC50,Jurkat cells; [19],3.8 µM
COc1ccc(CCN2CCC(COC(c3ccccc3)c3ccccc3)CC2)cc1 [TH-1087],Effect on proliferation of LNCaP cells,[1]; 48 hours,concentration dependent inhibition
same,Effect on proliferation of PC3 cells,[2],concentration dependent inhibition
same,Effect on proliferation of MDA-361 cells,[3],concentration dependent inhibition
same,Effect on proliferation of Jurkat cells,Jurkat cells; 48 hours,concentration dependent inhibition
same,Effect on proliferation of MDA-468 cells,[4],concentration dependent inhibition
c1ccc(C(CN2CCC(COC(c3ccccc3)c3ccccc3)CC2)c2ccccc2)cc1 [MMR-70],Effect on proliferation of LNCaP cells,[1]; 48 hours,inhibition
same,Effect on proliferation of PC3 cells,[2],inhibition
same,Effect on proliferation of MDA-361 cells,[3],inhibition
same,Effect on proliferation of Jurkat cells,Jurkat cells; 48 hours,inhibition
same,Effect on proliferation of MDA-468 cells,[4],inhibition
COc1cccc(CCN2CCC[C@H]2COC(c2ccccc2)c2ccc(Cl)cc2)c1 (stereo partly drawn) [TH-3105],IC50,[1]; [17],3.2 µM
same,IC50,[3]; [18],29 µM
same,IC50,Jurkat cells; [19],5 µM
COc1ccc(CCN2CCCC(COC(c3ccccc3)c3ccc(Cl)cc3)C2)cc1 (stereo not drawn) [TH-1205],Effect on proliferation of LNCaP cells,[1]; 48 hours,concentration dependent inhibition
same,IC50,[1]; [14],5 µM
same,IC50,[5],33 µM
same,IC50,[6],~100 µM
same,IC50,[7],17 µM
same,Effect on proliferation of PC3 cells,[2],concentration dependent inhibition
same,IC50,[2],23 µM
same,Effect on proliferation of MDA-361 cells,[3],concentration dependent inhibition
same,IC50,[3]; [15],19 µM
same,IC50,[8],40 µM
same,IC50,[9],21 µM
same,IC50,[10],30 µM
same,Effect on proliferation of Jurkat cells,Jurkat cells; 48 hours,concentration dependent inhibition
same,IC50,Jurkat cells; [16],11 µM
same,IC50,[11],93 µM
same,IC50,[12],35 µM
same,Effect on proliferation of MDA-468 cells,[4],concentration dependent inhibition
same,IC50,[4],13 µM
same,IC50,[13],70 µM
COc1ccc(CCCN2CCC[C@H]2COC2c3ccccc3-c3ccccc32)cc1 [TH-2085],IC50,[1]; [14],4 µM
same,IC50,[5],80 µM
same,IC50,[6],~60 µM
same,IC50,[7],17 µM
same,IC50,[2],36 µM
same,IC50,[3]; [15],26 µM
same,IC50,[8],28 µM
same,IC50,[9],41 µM
same,IC50,[10],50 µM
same,IC50,Jurkat cells; [16],10 µM
same,IC50,[11],90 µM
same,IC50,[12],31 µM
same,IC50,[4],14 µM
same,IC50,[13],33 µM
COc1ccc(CCN2CCC(COC(c3ccc(Cl)cc3)c3ccc(Cl)cc3)CC2)cc1 [TH-2043],IC50,[1]; [14],4 µM
same,IC50,[5],23 µM
same,IC50,[6],> 100 µM
same,IC50,[7],17 µM
same,IC50,[2],14 µM
same,IC50,[3]; [15],13 µM
same,IC50,[8],> 100 µM
same,IC50,[9],9 µM
same,IC50,[10],10 µM
same,IC50,Jurkat cells; [16],8 µM
same,IC50,[11],20 µM
same,IC50,[12],10 µM
same,IC50,[4],8 µM
same,IC50,[13],29 µM
COc1ccc(CCN2CCC(COC(c3ccccc3)c3ccc(Cl)cc3)CC2)cc1 (stereo not drawn) [TH-2029],IC50,[1]; [14],5 µM
same,IC50,[5],24 µM
same,IC50,[6],~60 µM
same,IC50,[7],17 µM
same,IC50,[2],18 µM
same,IC50,[3]; [15],16 µM
same,IC50,[8],30 µM
same,IC50,[9],17 µM
same,IC50,[10],18 µM
same,IC50,Jurkat cells; [16],11 µM
same,IC50,[11],26 µM
same,IC50,[12],24 µM
same,IC50,[4],10 µM
same,IC50,[13],37 µM
